What was measured:
[1] = tested on: alpha-1 adrenergic receptor; conditions: Chenard et al., 1991; cited from earlier work
[2] = tested on: intraplantar carrageenan-induced paw withdrawal latency; assay: intraplantar carrageenan-induced paw withdrawal latency in the rat; type: in vivo
Description: More particularly, FIG. 1 is a graph showing the effect of (−) threo-ifenprodil when given intranasally or intraperitoneally at 10 and 30 mg/kg on the % change of pressure-induced paw withdrawal latency on the intraplantar carrageenan administered paw in the rat (250 g).
FIG. 2 is a graph showing the effect of (−) threo-ifenprodil when given intravenously at 0.1 to 3 mg/kg on the % change of pressure-induced paw withdrawal latency on the intraplantar carrageenan administered paw in the rat.

With CC(C(O)c1ccc(O)cc1)N1CCC(Cc2ccccc2)CC1 (centres unmarked) [Ifenprodil, 2-(4-benzylpiperidino)-1-(4-hydroxyphenyl)-1-propanol] as the compound, how does the “alpha-1 adrenergic receptor binding properties” value [1] read?
Its value is “potent”.

Which “efficacy on pressure-induced paw withdrawal latency” value ([2]; intravenous, 0.1, 0.3, 1 and 3 mg/kg, FIG. 2) does the source give for CC(C(O)c1ccc(O)cc1)N1CCC(Cc2ccccc2)CC1 (single isomer, unassigned; (-)) [(−) Threo-ifenprodil] here?
Its value is “excellent efficacy”.

For CC(C(O)c1ccc(O)cc1)N1CCC(Cc2ccccc2)CC1 (racemic) [erythro racemate of ifenprodil], which “intranasal route compared with intraperitoneal route” value ([2]; FIG. 1) is on record?
The value was “at least equivalent if not superior to the intraperitoneal route”.

What about the “analgesic effect on pressure-induced paw withdrawal latency” value ([2]; intranasal, 2.5 mg/rat and 7.5 mg/rat, FIG. 1) of the same compound?
The value was “markedly analgesic”.

And the “analgesic effect on pressure-induced paw withdrawal latency” value ([2]; intraperitoneal, 10 mg/kg and 30 mg/kg, FIG. 1)?
The value was “markedly analgesic”.
